# Reference: PubChem BioAssay AID328 (DTP/NCI, 2004)
# Where “and” joins values, the source holds several entries; their conditions need not be identical. Identical values can stand only once. Inconclusive results and toxic doses are left out.
# Tested on: BDF1 mice, P388 leukemia ip, median survival T/C
# Test: NCI In Vivo Anticancer Drug Screen. Data for tumor model P388 Leukemia (intraperitoneal) in B6D2F1 (BDF1) mice
# Conditions: endpoint: median survival time, higher = longer survival
# Summary of the method: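 Survival ratio, drug arm over vehicle arm, in mice with a transplanted tumour.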
# [1] = dose: 100.0 mg/kg/injection, schedule: Q01DX009 (ip), vehicle: Klucel (hydroxypropylcellulose) (HPC)
# [2] = dose: 100.0 mg/kg/injection, schedule: Q04DX003 (ip), vehicle: Klucel (hydroxypropylcellulose) (HPC)
# [3] = dose: 200.0 mg/kg/injection, schedule: Q01DX009 (ip), vehicle: Klucel (hydroxypropylcellulose) (HPC)
# [4] = dose: 200.0 mg/kg/injection, schedule: Q04DX003 (ip), vehicle: Klucel (hydroxypropylcellulose) (HPC)
# [5] = dose: 400.0 mg/kg/injection, schedule: Q01DX009 (ip), vehicle: Klucel (hydroxypropylcellulose) (HPC)
# [6] = dose: 400.0 mg/kg/injection, schedule: Q04DX003 (ip), vehicle: Klucel (hydroxypropylcellulose) (HPC)
# [7] = dose: 100.0 mg/kg/injection, schedule: Q04DX003 (ip), vehicle: saline with Tween-80
# [8] = dose: 200.0 mg/kg/injection, schedule: Q04DX003 (ip), vehicle: saline with Tween-80
# [9] = dose: 400.0 mg/kg/injection, schedule: Q04DX003 (ip), vehicle: saline with Tween-80
# [10] = dose: 100.0 mg/kg/injection, schedule: Q04DX003 (ip), vehicle: saline
# [11] = dose: 200.0 mg/kg/injection, schedule: Q04DX003 (ip), vehicle: saline
# [12] = dose: 25.0 mg/kg/injection, schedule: Q01DX009 (ip), vehicle: saline with Tween-80
# [13] = dose: 50.0 mg/kg/injection, schedule: Q04DX003 (ip), vehicle: saline with Tween-80
# [14] = dose: 100.0 mg/kg/injection, schedule: Q01DX009 (ip), vehicle: saline with Tween-80
# [15] = dose: 12.5 mg/kg/injection, schedule: Q01DX009 (ip), vehicle: water
# [16] = dose: 50.0 mg/kg/injection, schedule: Q01DX009 (ip), vehicle: water
# [17] = dose: 100.0 mg/kg/injection, schedule: Q01DX009 (ip), vehicle: water
# [18] = dose: 25.0 mg/kg/injection, schedule: Q04DX003 (ip), vehicle: saline
# [19] = dose: 50.0 mg/kg/injection, schedule: Q04DX003 (ip), vehicle: saline
# [20] = dose: 25.0 mg/kg/injection, schedule: Q01DX009 (ip), vehicle: water
# [21] = dose: 25.0 mg/kg/injection, schedule: Q04DX003 (ip), vehicle: water
# [22] = dose: 50.0 mg/kg/injection, schedule: Q04DX003 (ip), vehicle: water
# [23] = dose: 100.0 mg/kg/injection, schedule: Q04DX003 (ip), vehicle: water
# [24] = dose: 200.0 mg/kg/injection, schedule: Q01DX009 (ip), vehicle: water
# [25] = dose: 200.0 mg/kg/injection, schedule: Q04DX003 (ip), vehicle: water
# [26] = dose: 400.0 mg/kg/injection, schedule: Q04DX003 (ip), vehicle: water
smiles,measurement,setting,value
O=C(NCCO)c1cc2ccccc2cc1O,T/C,[1],90 % of control
same,T/C,[2],104 % of control
same,T/C,[3],100 % of control
same,T/C,[4],100 % of control
same,T/C,[5],100 % of control
same,T/C,[6],100 % of control
O=C1C(F)=C(N2CC2)C(=O)C(N2CCOCC2)=C1N1CC1,T/C,"dose: 3.0 mg/kg/injection, schedule: Q01DX009 (ip), vehicle: saline",157 % of control
same,T/C,"dose: 6.0 mg/kg/injection, schedule: Q01DX009 (ip), vehicle: saline",99 % of control
Cc1ccc(NS(=O)(=O)c2ccccc2)nc1,T/C,[7],112 % of control
same,T/C,[8],116 % of control
same,T/C,[9],96 % of control
O=C(O)C1=NN(c2cc(Cl)c(S(=O)(=O)O)cc2Cl)C(=O)C1,T/C,[1],100 % of control
same,T/C,"dose: 100.0 mg/kg/injection, schedule: Q01DX009 (ip), vehicle: saline",110 % of control
same,T/C,[10],95 % of control
same,T/C,"dose: 175.0 mg/kg/injection, schedule: Q01DX009 (ip), vehicle: other",100 % of control
same,T/C,[3],108 % of control
same,T/C,"dose: 200.0 mg/kg/injection, schedule: Q01DX009 (ip), vehicle: saline",120 % of control
same,T/C,[11],95 % of control
same,T/C,"dose: 265.0 mg/kg/injection, schedule: Q01DX009 (ip), vehicle: other",88 % of control
same,T/C,[5],104 % of control
same,T/C,"dose: 400.0 mg/kg/injection, schedule: Q01DX009 (ip), vehicle: other",100 % of control
same,T/C,"dose: 400.0 mg/kg/injection, schedule: Q04DX003 (ip), vehicle: saline",118 % of control
same,T/C,"dose: 600.0 mg/kg/injection, schedule: Q01DX009 (ip), vehicle: other",88 % of control
C[N+](C)(CC(=O)Nc1ccc(Cl)c(Cl)c1)Cc1ccc(Cl)c(Cl)c1,T/C,"dose: 6.25 mg/kg/injection, schedule: Q01DX009 (ip), vehicle: saline with Tween-80",120 % of control
same,T/C,"dose: 12.5 mg/kg/injection, schedule: Q01DX009 (ip), vehicle: saline with Tween-80",108 % of control
CC1(C)N=C(N)N=C(N)N1c1ccc(OCCCNC(=O)Nc2cccc(S(=O)(=O)F)c2)c(Cl)c1,T/C,[12],177 % of control
same,T/C,"dose: 25.0 mg/kg/injection, schedule: Q04DX003 (ip), vehicle: saline with Tween-80",150 % of control
same,T/C,"dose: 50.0 mg/kg/injection, schedule: Q01DX009 (ip), vehicle: saline with Tween-80",200 % of control
same,T/C,[13],150 % of control
same,T/C,"dose: 66.0 mg/kg/injection, schedule: Q01DX009 (ip), vehicle: saline with Tween-80",177 % of control
same,T/C,[14],86 % of control and 213 % of control
O=N[O-].O=N[O-].[Co].[NH-]CC[N-]CCO.[NH-]CC[N-]CCO,T/C,[15],102 % of control and 115 % of control
same,T/C,"dose: 40.0 mg/kg/injection, schedule: Q01DX009 (ip), vehicle: water",118 % of control
same,T/C,[16],100 % of control and 111 % of control
same,T/C,[17],101 % of control
COc1cc2c(cc1OC)C(CCN1C(=O)c3ccccc3C1=O)=NCC2,T/C,"dose: 12.5 mg/kg/injection, schedule: Q01DX009 (ip), vehicle: saline",91 % of control
same,T/C,"dose: 25.0 mg/kg/injection, schedule: Q01DX009 (ip), vehicle: saline",87 % of control
same,T/C,[18],100 % of control
same,T/C,[19],95 % of control
Cc1c(-c2ccccc2)cc(O)cc1-c1ccccc1,T/C,"dose: 12.5 mg/kg/injection, schedule: Q04DX003 (ip), vehicle: saline",101 % of control
same,T/C,[18],97 % of control and 114 % of control
same,T/C,[19],102 % of control (2×) and 112 % of control
same,T/C,[10],88 % of control and 109 % of control
same,T/C,"dose: 150.0 mg/kg/injection, schedule: Q04DX003 (ip), vehicle: saline",93 % of control
same,T/C,[11],93 % of control and 101 % of control and 102 % of control
CCCCCCCCCCCCCCCCOc1ccc(Cl)cc1,T/C,"dose: 25.0 mg/kg/injection, schedule: Q01DX001 (ip), vehicle: saline sonified",109 % of control
same,T/C,"dose: 50.0 mg/kg/injection, schedule: Q01DX001 (ip), vehicle: saline sonified",100 % of control
CC(C)(Br)C(=O)c1ccc(-c2ccccc2)cc1,T/C,[15],109 % of control
same,T/C,[20],96 % of control
same,T/C,[21],107 % of control
same,T/C,[16],117 % of control
same,T/C,[22],107 % of control
same,T/C,[17],102 % of control
same,T/C,[2],90 % of control
same,T/C,[23],107 % of control
same,T/C,[24],109 % of control
same,T/C,[4],100 % of control
same,T/C,[25],107 % of control
same,T/C,"dose: 400.0 mg/kg/injection, schedule: Q01DX009 (ip), vehicle: water",117 % of control
same,T/C,[6],100 % of control
same,T/C,[26],110 % of control
COC1=C(OC)C(=O)C(C/C=C(\C)CC/C=C(\C)CC/C=C(\C)CC/C=C(\C)CC/C=C(\C)CC/C=C(\C)CC/C=C(\C)CC/C=C(\C)CCC=C(C)C)=C(C)C1=O,T/C,"dose: 5.0 mg/kg/injection, schedule: Q01DX025 (ip), vehicle: saline with Tween-80",109 % of control
same,T/C,"dose: 10.0 mg/kg/injection, schedule: Q01DX025 (ip), vehicle: saline with Tween-80",106 % of control
same,T/C,"dose: 20.0 mg/kg/injection, schedule: Q01DX025 (ip), vehicle: saline with Tween-80",104 % of control
same,T/C,"dose: 40.0 mg/kg/injection, schedule: Q01DX025 (ip), vehicle: saline with Tween-80",98 % of control
Cc1ccc(S(=O)(=O)c2ccc(Sc3cccc[n+]3[O-])c3nonc23)cc1,T/C,[12],119 % of control
same,T/C,[14],111 % of control
CCOC(=O)C(I)CC (stereo not drawn),T/C,"dose: 6.25 mg/kg/injection, schedule: Q04DX003 (ip), vehicle: water",100 % of control
same,T/C,[15],105 % of control
same,T/C,"dose: 12.5 mg/kg/injection, schedule: Q04DX003 (ip), vehicle: water",100 % of control
same,T/C,[20],98 % of control
same,T/C,[21],105 % of control
same,T/C,[16],107 % of control
same,T/C,[22],101 % of control
same,T/C,[17],116 % of control
same,T/C,[23],96 % of control
same,T/C,[24],123 % of control
same,T/C,[25],98 % of control and 104 % of control
same,T/C,"dose: 300.0 mg/kg/injection, schedule: Q04DX003 (ip), vehicle: water",110 % of control
same,T/C,[26],104 % of control
N/N=C(/C=C/C(=O)O)c1ccccc1,T/C,"dose: 100.0 mg/kg/injection, schedule: Q01DX001 (ip), vehicle: saline sonified",100 % of control
same,T/C,"dose: 200.0 mg/kg/injection, schedule: Q01DX001 (ip), vehicle: saline sonified",109 % of control
same,T/C,"dose: 400.0 mg/kg/injection, schedule: Q01DX001 (ip), vehicle: saline sonified",100 % of control
CC(C)CC(Br)C(=O)NCC(=O)NC(Cc1ccccc1)C(=O)O (stereo not drawn),T/C,[13],95 % of control
same,T/C,[7],100 % of control
same,T/C,[8],95 % of control
CCn1cnc2c(SC3CCCC3)ncnc21,T/C,"dose: 100.0 mg/kg/injection, schedule: Q04DX003 (ip), vehicle: saline sonified",100 % of control
same,T/C,"dose: 200.0 mg/kg/injection, schedule: Q04DX003 (ip), vehicle: saline sonified",100 % of control
same,T/C,"dose: 400.0 mg/kg/injection, schedule: Q04DX003 (ip), vehicle: saline sonified",100 % of control
CCCCc1c2c(nn1C(=O)C=C(C)C)C(=O)C=C(Nc1ccccc1)C2=O,T/C,[7],99 % of control
same,T/C,[8],95 % of control
same,T/C,[9],103 % of control
CC(C)c1nc(-c2ccccc2)c(-c2ccccc2)[nH]1,T/C,[7],100 % of control
same,T/C,[8],104 % of control
same,T/C,[9],100 % of control
CN(C)P(N)(N)=O,T/C,[2],100 % of control
same,T/C,[4],100 % of control
same,T/C,[6],95 % of control
O=[N+]([O-])c1ccc(N2CCN(c3ccccc3)CC2)c2c1no[n+]2[O-],T/C,"dose: 75.0 mg/kg/injection, schedule: Q04DX003 (ip), vehicle: saline with Tween-80",108 % of control
same,T/C,"dose: 150.0 mg/kg/injection, schedule: Q04DX003 (ip), vehicle: saline with Tween-80",111 % of control
Cn1cnc([N+](=O)[O-])c1[Se]c1nc(N)nc2c1ncn2C1CC(O)C(CO)O1 (stereo not drawn),T/C,[19],95 % of control
same,T/C,[10],90 % of control
same,T/C,[11],90 % of control
